Source: ChEMBL document CHEMBL1138830, “On the function of the 14 A long internal cavity of histone deacetylase-like protein: implications for the design of histone deacetylase inhibitors” (J Med Chem, 2004)

Biological target: Histone deacetylase 1 (Homo sapiens, UniProt Q13547)
Test: Inhibitory activity against human Histone deacetylase 1

Chain of Histone deacetylase 1 (Q13547 whole entry): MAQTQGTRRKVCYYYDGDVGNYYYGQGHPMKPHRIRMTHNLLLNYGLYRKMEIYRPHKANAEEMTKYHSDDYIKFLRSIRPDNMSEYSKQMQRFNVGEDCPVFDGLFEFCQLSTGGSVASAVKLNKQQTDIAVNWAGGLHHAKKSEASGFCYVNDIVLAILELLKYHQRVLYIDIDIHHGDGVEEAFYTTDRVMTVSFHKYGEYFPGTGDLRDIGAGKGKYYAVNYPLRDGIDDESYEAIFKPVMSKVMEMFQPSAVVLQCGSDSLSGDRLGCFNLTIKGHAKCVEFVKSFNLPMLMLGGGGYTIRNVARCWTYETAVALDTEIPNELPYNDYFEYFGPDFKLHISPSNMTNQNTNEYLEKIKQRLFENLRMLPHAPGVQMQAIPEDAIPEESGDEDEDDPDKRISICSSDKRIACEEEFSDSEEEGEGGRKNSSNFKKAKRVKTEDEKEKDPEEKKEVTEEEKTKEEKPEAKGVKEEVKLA

Row | SMILES | IC50 [nM]
1 | O=C(/C=C/c1cccc(C(C(=O)Nc2ccccc2)C(=O)Nc2ccccc2)c1)NO | 1
2 | O=C(CCCCCC(NC(=O)OCc1ccccc1)C(=O)Nc1cccc2cccnc12)NO (stereo not drawn) | 2.5
3 | O=C(CCCCCC(C(=O)Nc1ccc2ncccc2c1)C(=O)Nc1ccc2ncccc2c1)NO | 1
